Consider 21 molecules from PubChem BioAssay (NCI).

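Values below derive from 48-hour exposures of cells grown in 96-well plates, with endpoints linearly interpolated between the two concentrations bracketing the appropriate inhibition level. Abbreviation: GI50, concentration required for 50% inhibition of growth. TGI: total growth inhibition.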

Some test systems named below: KM12 colon; MALME-3M melanoma; MDA-MB-231 breast; MDA-MB-435; OVCAR-4 ovarian; OVCAR-5 ovarian; PC-3 prostate; SF-268 CNS; SW-620 colon; UO-31 renal.
What all share (assay): NCI-60 cell line screen, 48 h

In the case of `CCOC(=O)c1cc(C2(O)CCN(Cc3ccccc3)C2=O)c(-c2cc(C)no2)[nH]1` (stereo not drawn), the TGI in the assay on KM12 colon, in the assay on MALME-3M melanoma, with MDA-MB-231 breast, with MDA-MB-435, in the assay on OVCAR-4 ovarian and in the assay with OVCAR-5 ovarian was over 100 µM throughout. Besides, the TGI in the assay with PC-3 prostate, in the assay on SF-268 CNS, in the assay with SW-620 colon and in the assay with UO-31 renal was over 100 µM throughout.

With `CCOC(=O)c1sc2nc(SC)nc3c2c1N=CN3c1ccc(Br)cc1`, the TGI in the assay with KM12 colon, with MALME-3M melanoma, in the assay on MDA-MB-231 breast, in the assay on MDA-MB-435, in the assay on OVCAR-4 ovarian and in the assay with OVCAR-5 ovarian was over 100 µM each time. Besides, the TGI in the assay on PC-3 prostate, with SW-620 colon and in the assay on UO-31 renal was over 100 µM in each case.

With `CC1(C)CC2(C)CC1CC2O` (stereo not drawn), the TGI in the assay with KM12 colon, in the assay on MALME-3M melanoma, in the assay with MDA-MB-231 breast, with MDA-MB-435, in the assay with OVCAR-4 ovarian and with OVCAR-5 ovarian was over 100 µM in each case. For the same molecule, the TGI with PC-3 prostate, in the assay on SF-268 CNS, with SW-620 colon and in the assay on UO-31 renal was over 100 µM throughout.

With `CCOC(=O)CCC(NC(=O)c1ccc(OCc2nc3cc(C(F)(F)F)ccc3nc2-c2ccccc2)cc1)C(=O)OCC` (stereo not drawn), the TGI was over 100 µM in the assay on KM12 colon; over 100 µM in the assay on MALME-3M melanoma; over 100 µM in the assay with MDA-MB-231 breast; over 100 µM in the assay with MDA-MB-435; 38.4 µM in the assay with OVCAR-4 ovarian; over 100 µM in the assay on OVCAR-5 ovarian. In addition, the TGI in the assay on PC-3 prostate, with SF-268 CNS, with SW-620 colon and with UO-31 renal was over 100 µM in each case.

Take `N#C/C(=C\NC(=S)Nc1ccc(S(=O)(=O)Nc2ccccn2)cc1)C(N)=O`: the TGI in the assay on KM12 colon, with MALME-3M melanoma, in the assay on MDA-MB-231 breast, in the assay on MDA-MB-435, with OVCAR-4 ovarian and in the assay on OVCAR-5 ovarian was over 100 µM each time. Besides, the TGI in the assay on PC-3 prostate, in the assay with SF-268 CNS, in the assay on SW-620 colon and in the assay on UO-31 renal was over 100 µM throughout.

With `C=CCN(CC=C)Cn1c(=S)sc2ccccc21`, the TGI with KM12 colon, in the assay on MDA-MB-231 breast, with MDA-MB-435, in the assay with OVCAR-4 ovarian, in the assay with OVCAR-5 ovarian and in the assay with PC-3 prostate was over 100 µM throughout. For the same molecule, the TGI with SF-268 CNS, in the assay with SW-620 colon and with UO-31 renal was over 100 µM each time.

`Clc1cc(N/N=C(/c2ccccc2)c2ncccn2)ncn1`: the TGI in the assay with KM12 colon is over 100 µM; in the assay with MDA-MB-231 breast, 82.1 µM; in the assay with MDA-MB-435, over 100 µM; in the assay with OVCAR-4 ovarian, 68 µM; in the assay on OVCAR-5 ovarian, over 100 µM; with PC-3 prostate, over 100 µM. Also, the TGI is over 100 µM in the assay on SF-268 CNS, over 100 µM in the assay on SW-620 colon and 55.8 µM in the assay on UO-31 renal.

On to `CCCCc1c(O)nc(Nc2nc3ccccc3[nH]2)[nH]c1=O`, for which the TGI with KM12 colon, in the assay on MALME-3M melanoma, in the assay on MDA-MB-231 breast, in the assay on MDA-MB-435, in the assay on OVCAR-4 ovarian and in the assay on OVCAR-5 ovarian was over 100 µM each time. Further, the TGI with PC-3 prostate, in the assay with SF-268 CNS and with SW-620 colon was over 100 µM throughout.

With `Oc1ccccc1C(c1cc2c(cc1O)OCO2)N1CCOCC1` (stereo not drawn), the TGI came out at 43 µM in the assay on KM12 colon; 32.2 µM in the assay on MALME-3M melanoma; 36.1 µM in the assay with MDA-MB-231 breast; 34.9 µM with MDA-MB-435; 57.8 µM in the assay with OVCAR-5 ovarian; 31.6 µM in the assay on PC-3 prostate. Besides, the TGI was determined as 36.9 µM in the assay with SF-268 CNS, 70.8 µM in the assay with SW-620 colon and 29.3 µM in the assay on UO-31 renal.

In the case of `CCOC(=O)c1c(NC(=O)c2ccccc2)sc2c1CCCC2`, the TGI with KM12 colon, in the assay on MALME-3M melanoma, in the assay with MDA-MB-231 breast, with MDA-MB-435, with OVCAR-5 ovarian and in the assay with PC-3 prostate was over 100 µM throughout. The TGI in the assay on SF-268 CNS, in the assay on SW-620 colon and with UO-31 renal was over 100 µM throughout.

As to `Cc1ccc(-c2cc(N)n(-c3nc4c([nH]3)c(=O)n(C)c(=O)n4C)n2)cc1`, the TGI is 38.9 µM in the assay with KM12 colon; 16 µM with MALME-3M melanoma; 27.8 µM in the assay with MDA-MB-231 breast; over 100 µM in the assay on MDA-MB-435; over 100 µM in the assay on OVCAR-4 ovarian; over 100 µM with OVCAR-5 ovarian. The TGI in the assay with PC-3 prostate was over 100 µM; in the assay on SF-268 CNS it was 34.5 µM; in the assay with UO-31 renal, 73.1 µM.

Take `O=C(/C(=C(/Br)I)c1ccccc1)c1ccccc1`: the TGI is 38 µM in the assay with KM12 colon; 33.2 µM with MALME-3M melanoma; 60.1 µM with MDA-MB-231 breast; 82.6 µM with MDA-MB-435; over 100 µM in the assay with OVCAR-5 ovarian; over 100 µM in the assay on PC-3 prostate. In addition, the TGI in the assay on SF-268 CNS is 48.5 µM; in the assay on UO-31 renal, 41.3 µM.

Regarding `CCN(CC)CCn1c2cc3c(cc2c(=O)c2cccnc21)OCCO3`, the TGI with KM12 colon, in the assay with MALME-3M melanoma, in the assay on MDA-MB-231 breast, with MDA-MB-435, with OVCAR-4 ovarian and in the assay on PC-3 prostate was over 10 µM in each case. The TGI in the assay on SF-268 CNS and in the assay with SW-620 colon was over 10 µM each time.

On to `CC(=O)NC1C(OCc2ccccc2)OC(CO)C(O)C1OCC(=O)N[C@@H](C)C(=O)N[C@H](CCC(=O)NCCNCCNc1c2ccccc2nc2cccc([N+](=O)[O-])c12)C(N)=O` (stereo partly drawn), for which the TGI in the assay on KM12 colon was 78.5 µM; with MALME-3M melanoma it was 55.5 µM; with MDA-MB-231 breast it was over 100 µM; in the assay on MDA-MB-435, 71.1 µM; in the assay on OVCAR-4 ovarian, 40.2 µM; with OVCAR-5 ovarian it was over 100 µM. Further, the TGI in the assay on PC-3 prostate was 73 µM; in the assay with SW-620 colon, over 100 µM; with UO-31 renal, over 100 µM.

For `Cc1c(Cl)ccc2c(=O)c3cccc(CC(=O)O)c3oc12`, the TGI in the assay with KM12 colon, in the assay with MALME-3M melanoma, with MDA-MB-231 breast, in the assay with MDA-MB-435, in the assay with OVCAR-4 ovarian and in the assay with PC-3 prostate was over 100 µM each time. Moreover, the TGI in the assay on SF-268 CNS, in the assay on SW-620 colon and in the assay with UO-31 renal was over 100 µM throughout.

Regarding `c1sc(NC2=NCCO2)c2c1CCCC2`, the TGI in the assay on KM12 colon, with MALME-3M melanoma, in the assay with MDA-MB-231 breast, in the assay with MDA-MB-435, in the assay with OVCAR-4 ovarian and in the assay with OVCAR-5 ovarian was over 100 µM throughout. Also, the TGI in the assay with PC-3 prostate, with SW-620 colon and in the assay on UO-31 renal was over 100 µM throughout.

For `O=c1c2c3ccccc3[nH]c2c2cccc3c2n1CCC3`, the TGI was over 100 µM in the assay with KM12 colon; 71.1 µM with MALME-3M melanoma; over 100 µM in the assay with MDA-MB-231 breast; over 100 µM in the assay on MDA-MB-435; over 100 µM with OVCAR-5 ovarian; over 100 µM with PC-3 prostate. In addition, the TGI in the assay on SF-268 CNS and in the assay with SW-620 colon was over 100 µM in each case.

For `Cc1[nH]c(/C=C2\C(=O)Nc3ccc(S(=O)(=O)Cc4c(Cl)cccc4Cl)cc32)c(C)c1C(=O)N1CCC[C@@H]1CN1CCCC1`, the GI50 with KM12 colon is 0.138 µM; in the assay on MDA-MB-231 breast, 1.57 µM; in the assay with MDA-MB-435, 0.865 µM; with OVCAR-4 ovarian it was 26.1 µM; in the assay on OVCAR-5 ovarian it was 1.95 µM; in the assay with PC-3 prostate, 1.73 µM. For the same molecule, the GI50 in the assay on SF-268 CNS is 1.6 µM; in the assay with SW-620 colon it was 1.78 µM; in the assay on UO-31 renal it was 1.41 µM. For the same molecule, the TGI in the assay with KM12 colon was 4.77 µM; in the assay with MDA-MB-231 breast, 3.16 µM; in the assay on MDA-MB-435, 2.2 µM; in the assay with OVCAR-4 ovarian, 70.7 µM; in the assay with OVCAR-5 ovarian, 3.72 µM; with PC-3 prostate, over 21.5 µM. Moreover, the values for the TGI in the assay with SF-268 CNS, in the assay with SW-620 colon and in the assay on UO-31 renal were 4.03 µM, 3.29 µM and 3.07 µM, respectively.

For `COc1cc2oc(-c3ccc(O)cc3)c(OC3OC(C)C(O)C(O)C3O)c(=O)c2c(O)c1OC` (stereo not drawn), the TGI in the assay on KM12 colon, with MALME-3M melanoma, in the assay on MDA-MB-231 breast, in the assay on MDA-MB-435, in the assay with OVCAR-4 ovarian and in the assay with OVCAR-5 ovarian was over 100 µM in each case. Also, the TGI with PC-3 prostate, in the assay with SF-268 CNS and with SW-620 colon was over 100 µM in each case.

For `c1cc(-c2cnc(-c3ccc4c(c3)CCCO4)o2)ccn1`, the TGI in the assay with MALME-3M melanoma stood at 30.6 µM; in the assay with MDA-MB-231 breast, 41 µM; in the assay with MDA-MB-435 it was 28.3 µM; in the assay with OVCAR-4 ovarian, 42.3 µM; with OVCAR-5 ovarian, 44.5 µM; in the assay on PC-3 prostate, 24.4 µM. Moreover, the TGI stood at 33.2 µM in the assay on SF-268 CNS and 25.3 µM in the assay on UO-31 renal.

For `O=C1CC(C(O)CO)CC(=O)N1` (stereo not drawn), the TGI in the assay on KM12 colon, in the assay on MALME-3M melanoma, in the assay on MDA-MB-231 breast, in the assay with MDA-MB-435, in the assay with OVCAR-5 ovarian and in the assay on PC-3 prostate was over 100 µM each time. The TGI in the assay on SF-268 CNS, in the assay on SW-620 colon and with UO-31 renal was over 100 µM throughout.
